Reference: US20190257816A1, “DIFFERENTIAL BH3 MITOCHONDRIAL PROFILING” (Eutropics Pharmaceuticals, Inc., priority 2013, published 2019)
Where “and” joins values, the source holds several entries; their conditions need not be identical. Equal values may be shown once. Where no end group is shown, it is not given here.

Columns and labels:
LPN3 [1] = experiment: Mitochondrial profiling assay (JC-1), LPN3; format: cell-based; conditions: LPN3, percent priming, JC-1, 100 μM peptide
Protocol: (§1) The mitochondrial profiling assay was carried out in three steps: (1) cell preparation and counting, (2) cell permeabilization and peptide treatment, and (3) fluorescent readout (FIG. 1). Cells are suspended in Mitochondria loading Buffer with 0.005% digitonin, loaded with the cationic dye JC-1 (1 μM), and treated with 100 μM of one of the BH3 domain peptides: Bim, Bad, Noxa, and Puma. MOMP is followed by full mitochondrial membrane depolarization (ΔΨm), which is measured by treating the cells with the ionophore FCCP (p-trifluoromethoxy carbonyl cyanide phenyl hydrazone). Peptide (and FCCP) addition results in a decrease in membrane potential in suitably primed cells and is measured as a decrease in JC-1 fluorescence in a 384 well plate on a TecanGenios plate reader using an excitation of 535 nm and an emission of 590 nm.
(§2) Tables 3 and 4 show the percent priming of various cell lines, as determined by measuring the signal intensity of the JC-1 dye which is an indicator of mitochondrial depolarization. […] Viability was measured using an MTS assay. The IC50 is in μM.

Mcl-1 1780 [2] = experiment: Mitochondrial profiling assay (JC-1), Mcl-1 1780; format: cell-based; conditions: Mcl-1 1780, percent priming, JC-1, 100 μM peptide
Protocol: as §1, §2

NCI-H929 [3] = experiment: Mitochondrial profiling assay (JC-1), NCI-H929; format: cell-based; conditions: NCI-H929, percent priming, JC-1, 100 μM peptide
Protocol: as §1, §2

DHL6 [4] = experiment: Mitochondrial profiling assay (JC-1), DHL6; format: cell-based; conditions: DHL6, percent priming, JC-1, 100 μM peptide
Protocol: as §1, §2

BCL-2 = BCL-2 (Homo sapiens, UniProt P10415); experiment: BH3 domain binding affinities to BCL-2
BCL-XL = BCL-XL (Homo sapiens, UniProt Q07817); experiment: BH3 domain binding affinities to BCL-XL
DHL6 [5] = experiment: MTS viability assay, DHL6; format: cell-based; conditions: DHL6, 48 hours
Protocol: as §1, §2

DHL10 = experiment: MTS viability assay, DHL10; format: cell-based; conditions: for IC50: DHL10 (Bax/Bak deficient), 48 hours
Protocol: as §1, §2

NCI-H929 [6] = experiment: MTS viability assay, NCI-H929; format: cell-based; conditions: Homo sapiens; NCI-H929, 48 hours
Protocol: as §1, §2

Mcl-1 1780 [7] = experiment: MTS viability assay, Mcl-1 1780; format: cell-based; conditions: for IC50: Mcl1-1780, Mcl-1 1780, 48 hours
Protocol: as §1, §2

LPN3 [8] = experiment: MTS viability assay, LPN3; format: cell-based; conditions: LPN3, 48 hours
Protocol: as §1, §2

Bcl-2 1863 = experiment: MTS viability assay, Bcl-2 1863; format: cell-based; conditions: Bcl-2 primed cells (Bcl-2 1863)
OPM2/Luciferase cells = experiment: Tumor burden by bioluminescence imaging in xenografted mice; format: in vivo; conditions: OPM2/Luciferase xenograft in SCID mice, velcade 1 mpk IV 3×/week, compared with vehicle-only
Protocol: Mice were injected with 75 mg/kg D-luciferin, anesthetized, and imaged 10 minutes after substrate injection. Total body luminescence was determined using a standardized region of interest encompassing the entire mouse using the Living Images software package (Caliper Life Sciences).
OPM2/Luciferase cells were transferred to SCID mice and allowed to reach tumor burden. Xenografted mice were treated with EU-5148 (20 mpk IV, 3×/week), velcade for (1 mpk IV, 3×/week), or a combination of these treatments. […] The combination treatment of EU-5148 with Velcade results in 92% reduction in tumor cell burden over same time period.

multiple myeloma = experiment: Patient M-protein (M-spike) response to Velcade/Bortezomib treatment; format: in vivo, human; set-up: key to Δ M-Spike: % decrease in M-protein over treatment period; conditions: for Δ M-Spike: Velcade/Bortezomib combination regimen
Excerpt: To date, we have obtained Mitochondrial profiles from 14 multiple myeloma or plasma cell leukemia patients. Each of the samples tested came from patients treated with one of several different Velcade/Bortezomib combination regimens. The samples listed in Table 5 are viably frozen from a tissue bank or from fresh bone marrow delivered within a few hours of the biopsy. CD138 cells are purified from either source using two similar procedures that have been optimized for each respective tissue type. Profiles on frozen cells are performed immediately following purification. Profiles on fresh cells are performed immediately or on viably frozen CD138 positive cells. […] M-protein is an indication of myeloma activity and is widely used diagnostic marker of the severity of the disease. The patient M-protein response is converted to a percentage of the best response seen among the group of patients tested. The M-spike response is calculated as a percent decrease in M-protein over a given treatment period. […] The percent decrease is calculated with the following equation. The percent best response is used to normalize the data to a fixed scale where 100% is the best response and 0% is the worst response. It is calculated with the equation below. Cancer cells collected from a patient undergoing Velcade based treatment were mitochondrial profiled at three time points during the course of treatment (October 2010, January 2011, and May 2011). The profile was used to monitor the apoptotic predisposition of the CD-138 positive MM cells during treatment.

Chain of BCL-2 (P10415 whole entry, the tested form may be a part): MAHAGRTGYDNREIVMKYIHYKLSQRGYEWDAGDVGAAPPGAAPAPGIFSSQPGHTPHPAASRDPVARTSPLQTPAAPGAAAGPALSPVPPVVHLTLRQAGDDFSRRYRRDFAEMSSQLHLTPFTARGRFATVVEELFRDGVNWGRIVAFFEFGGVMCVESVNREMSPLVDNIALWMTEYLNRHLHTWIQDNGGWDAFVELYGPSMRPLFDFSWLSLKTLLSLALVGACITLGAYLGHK
Chain of BCL-XL (Q07817 whole entry, the tested form may be a part): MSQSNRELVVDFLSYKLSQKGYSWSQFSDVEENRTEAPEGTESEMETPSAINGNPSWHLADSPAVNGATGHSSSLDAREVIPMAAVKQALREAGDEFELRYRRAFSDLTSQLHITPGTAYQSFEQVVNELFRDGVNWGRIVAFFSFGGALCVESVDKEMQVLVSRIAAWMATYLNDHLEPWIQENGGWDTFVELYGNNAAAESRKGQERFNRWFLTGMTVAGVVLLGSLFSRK

“AELPPEFAAQLRKIGDKVYC [NOXA BH3, BH3 domain peptide]” was tested, and the “Mcl-1 Priming State (NOXA Signal)” value (LPN3 [1]) was 58 (HIGH) %, the “Mcl-1 Priming State (NOXA Signal)” value (Mcl-1 1780 [2]) was 75 (HIGH) % and 71 (HIGH) % and the “Mcl-1 Priming State (NOXA Signal)” value (NCI-H929 [3]) was 74 (HIGH) %. For the same molecule, the “Mcl-1 Priming State (NOXA Signal)” value (DHL6 [4]) was 18 (LOW) %.
For NLWAAQRYGRELRRMSDEFVDSFK [BAD BH3], the Kd (BCL-2) was 11 nM and the Kd (BCL-XL) was < 10 nM.
With `COC1=CC(c2cc3ccccc3[nH]2)=N/C1=C\c1[nH]c(C)cc1C` [Obatoclax] the IC50 (DHL6 [5]) was 1200 nM, the IC50 (DHL10) was 800 nM and the IC50 (NCI-H929 [6]) was 1000 nM. The IC50 (Mcl-1 1780 [7]) was 1500 nM.
`CC1(C)CCC(c2ccc(Cl)cc2)=C(CN2CCN(c3ccc(C(=O)NS(=O)(=O)c4ccc(N[C@H](CCN5CCOCC5)CSc5ccccc5)c(S(=O)(=O)C(F)(F)F)c4)cc3)CC2)C1` [ABT-263, Navitoclax] was tested, and the IC50 (DHL6 [5]) was < 1000 nM, the IC50 (DHL10) was > 25000 nM and the “cell-killing activity (in words)” value (DHL10; DHL-10 cells deficient in the Bax-Bak proteins) was “not responsive”. The IC50 (LPN3 [8]) was 4100 nM, the IC50 (NCI-H929 [6]) was 4000 nM and the “cell-killing activity (in words)” value (Bcl-2 1863) was “effective”. For the same molecule, the IC50 (Mcl-1 1780 [7]) was 17000 nM and the “cell-killing activity (in words)” value (Mcl-1 1780 [7]; Mcl-1 primed cells (Mcl-1 1780)) was “ineffective”.
With `CC(C)C[C@H](NC(=O)[C@H](Cc1ccccc1)NC(=O)c1cnccn1)B(O)O` [Velcade, Bortezomib] the “mean tumor burden reduction (in words)” value (OPM2/Luciferase cells) was “mean tumor burden reduction was observed”, the “Δ M-Spike” value (multiple myeloma; Patient No. 3039T) was 64.71 and the “Δ M-Spike” value (multiple myeloma; Patient No. 3098T) was 62.50. The “Δ M-Spike” value (multiple myeloma; Patient No. 3161T) was 12.90, the “Δ M-Spike” value (multiple myeloma; Patient No. 3187T) was 65.22 and the “Δ M-Spike” value (multiple myeloma; Patient No. 3188T) was 93.03. The “Δ M-Spike” value (multiple myeloma; Patient No. 3191T) was 57.69, the “Δ M-Spike” value (multiple myeloma; Patient No. 3201T) was 87.50 and the “Δ M-Spike” value (multiple myeloma; Patient No. 3213T) was −10.00. For the same molecule, the “Δ M-Spike” value (multiple myeloma; Patient No. 3221T) was 52.38, the M-Spike (multiple myeloma; TB# 3098T2, Jan. 27, 2011, patient undergoing Velcade based treatment) was 0.8 g/dL and the M-Spike (multiple myeloma; TB# 3098T3, May 5, 2011, patient undergoing Velcade based treatment) was 0.3 g/dL. The M-Spike (multiple myeloma; TB# 3098T, Oct. 13, 2010, patient undergoing Velcade based treatment) was 1.7 g/dL.
